Results from patent US20100292205A1, “Pyrimidone Compounds As GSK-3 Inhibitors” (PFIZER INC., priority 2006, published 2010).

molecular target: T1, Recombinant human GSK3β (Homo sapiens, UniProt P49841); test: GSK-3β (Glycogen Synthase Kinase) cell free enzyme assay; format: biochemical; settings: cell free enzyme assay; Examples 62-155
T1 construct: His-tag; made in house; host or cells: Sf9 insect cells / baculovirus
Outline: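 Recombinant human GSK3β, expressed in SF9/baculovirus cells and His-tag purified on Ni-NTA Superflow, was preincubated with test agent for 30 minutes at room temperature. Substrate mix was then added to start the reaction in 8 mM MOPS (pH 7.0), 10 mM magnesium acetate, 0.2 mM EDTA, 1 mM DTT, 2 uM cold ATP, 0.025 uCi/well [33P]ATP (120 uL) and 1.0 uM biotinylated peptide. Reactions ran at RT for 60 min.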

T1 sequence (P49841 whole entry): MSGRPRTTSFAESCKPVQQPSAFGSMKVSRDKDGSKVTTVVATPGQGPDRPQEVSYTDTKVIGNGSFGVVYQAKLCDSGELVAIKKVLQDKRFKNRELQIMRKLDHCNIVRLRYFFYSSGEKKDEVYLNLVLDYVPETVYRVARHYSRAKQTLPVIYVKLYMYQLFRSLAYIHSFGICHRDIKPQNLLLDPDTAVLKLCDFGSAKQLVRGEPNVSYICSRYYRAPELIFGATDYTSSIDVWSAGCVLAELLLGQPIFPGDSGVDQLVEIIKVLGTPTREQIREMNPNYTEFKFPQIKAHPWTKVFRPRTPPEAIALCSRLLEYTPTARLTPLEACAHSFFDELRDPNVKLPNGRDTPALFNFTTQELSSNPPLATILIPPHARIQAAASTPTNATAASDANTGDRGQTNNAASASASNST

IC50	Compound
1.05 nM	Cc1cccc(C(=O)N2C[C@@H]3[C@H](C2)[C@H]3N(C)c2nc(-c3ccncc3F)cc(=O)n2C)c1 [Example 132, 6-(3-Fluoropyridin-4-yl)-3-methyl-2-{methyl[(1R,5S,6s)-3-(3-methylbenzoyl)-3-azabicyclo[3.1.0]hex-6-yl]amino}pyrimidin-4(3H)-one]
2.91 nM	Cc1ccc(C(=O)N2C[C@@H]3[C@H](C2)[C@H]3N(C)c2nc(-c3ccncc3F)cc(=O)n2C)cc1F [Example 133, 2-{[(1R,5S,6s)-3-(3-Fluoro-4-methylbenzoyl)-3-azabicyclo[3.1.0]hex-6-yl](methyl)amino}-6-(3-fluoropyridin-4-yl)-3-methylpyrimidin-4(3H)-one]
65.7 nM	CN(c1nc(-c2ccncc2F)cc(=O)n1C)C1[C@H]2CN(C(=O)C34CC[C@@](C)(C(=O)O3)C4(C)C)C[C@@H]12 (stereo partly drawn) [Example 134, 6-(3-Fluoropyridin-4-yl)-3-methyl-2-{methyl[(1R,5S,6R)-3-{[(1S,4R)-4,7,7-trimethyl-3-oxo-2-oxabicyclo[2.2.1]hept-1-yl]carbonyl}-3-azabicyclo[3.1.0]hex-6-yl]amino}pyrimidin-4(3H)-one]
5.46 nM	CCC(=O)N1C[C@@H]2[C@H](C1)[C@H]2N(C)c1nc(-c2ccncc2F)cc(=O)n1C [Example 135, 6-(3-Fluoropyridin-4-yl)-3-methyl-2-{methyl[(1R,5S,6s)-3-propionyl-3-azabicyclo[3.1.0]hex-6-yl]amino}pyrimidin-4(3H)-one]
42.6 nM	CN(c1nc(-c2ccncc2F)cc(=O)n1C)[C@H]1[C@@H]2CN(C(=O)c3ccc(C#N)cc3)C[C@@H]21 [Example 136, 4-{[(1R,5S,6s)-6-{[4-(3-Fluoropyridin-4-yl)-1-methyl-6-oxo-1,6-dihydropyrimidin-2-yl](methyl)amino}-3-azabicyclo[3.1.0]hex-3-yl]carbonyl}benzonitrile]
3.29 nM	CN(c1nc(-c2ccncc2F)cc(=O)n1C)[C@H]1[C@@H]2CN(C(=O)c3cccc(F)c3F)C[C@@H]21 [Example 137, 2-{[(1R,5S,6s)-3-(2,3-Difluorobenzoyl)-3-azabicyclo[3.1.0]hex-6-yl](methyl)amino}-6-(3-fluoropyridin-4-yl)-3-methylpyrimidin-4(3H)-one]
13.8 nM	CCCC(=O)N1C[C@@H]2[C@H](C1)[C@H]2N(C)c1nc(-c2ccncc2F)cc(=O)n1C [Example 138, 2-{[(1R,5S,6s)-3-Butyryl-3-azabicyclo[3.1.0]hex-6-yl](methyl)amino}-6-(3-fluoropyridin-4-yl)-3-methylpyrimidin-4(3H)-one]
5.67 nM	CN(c1nc(-c2ccncc2F)cc(=O)n1C)[C@H]1[C@@H]2CN(C(=O)c3ccc(F)cc3)C[C@@H]21 [Example 139, 2-{[(1R,5S,6s)-3-(4-Fluorobenzoyl)-3-azabicyclo[3.1.0]hex-6-yl](methyl)amino}-6-(3-fluoropyridin-4-yl)-3-methylpyrimidin-4(3H)-one]
8.72 nM	CN(c1nc(-c2ccncc2F)cc(=O)n1C)[C@H]1[C@@H]2CN(C(=O)C3CC=CCC3)C[C@@H]21 (stereo partly drawn) [Example 140, 2-{[(1R,5S,6s)-3-(Cyclohex-3-en-1-ylcarbonyl)-3-azabicyclo[3.1.0]hex-6-yl](methyl)amino}-6-(3-fluoropyridin-4-yl)-3-methylpyrimidin-4(3H)-one]
1.04 nM	CN(c1nc(-c2ccncc2F)cc(=O)n1C)[C@H]1[C@@H]2CN(C(=O)c3cc(Cl)sc3Cl)C[C@@H]21 [Example 141, 2-[{(1R,5S,6s)-3-[(2,5-Dichloro-3-thienyl)carbonyl]-3-azabicyclo[3.1.0]hex-6-yl}(methyl)amino]-6-(3-fluoropyridin-4-yl)-3-methylpyrimidin-4(3H)-one]
3.51 nM	Cc1ccc(C(=O)N2C[C@@H]3[C@H](C2)[C@H]3N(C)c2nc(-c3ccncc3F)cc(=O)n2C)cc1 [Example 142, 6-(3-Fluoropyridin-4-yl)-3-methyl-2-{methyl[(1R,5S,6s)-3-(4-methylbenzoyl)-3-azabicyclo[3.1.0]hex-6-yl]amino}pyrimidin-4(3H)-one]
